The values that follow come from PMC9721424, “Novel N-methylsulfonyl-indole derivatives: biological activity and COX-2/5-LOX inhibitory effect with improved gastro protective profile and reduced cardio vascular risks” (Journal of Enzyme Inhibition and Medicinal Chemistry, 2022).

One data set has as its target T1, 5-LOX enzyme (Homo sapiens, UniProt P09917).
T1 construct: purchased Cayman Chemical K980-100
T1 sequence (P09917 1-674): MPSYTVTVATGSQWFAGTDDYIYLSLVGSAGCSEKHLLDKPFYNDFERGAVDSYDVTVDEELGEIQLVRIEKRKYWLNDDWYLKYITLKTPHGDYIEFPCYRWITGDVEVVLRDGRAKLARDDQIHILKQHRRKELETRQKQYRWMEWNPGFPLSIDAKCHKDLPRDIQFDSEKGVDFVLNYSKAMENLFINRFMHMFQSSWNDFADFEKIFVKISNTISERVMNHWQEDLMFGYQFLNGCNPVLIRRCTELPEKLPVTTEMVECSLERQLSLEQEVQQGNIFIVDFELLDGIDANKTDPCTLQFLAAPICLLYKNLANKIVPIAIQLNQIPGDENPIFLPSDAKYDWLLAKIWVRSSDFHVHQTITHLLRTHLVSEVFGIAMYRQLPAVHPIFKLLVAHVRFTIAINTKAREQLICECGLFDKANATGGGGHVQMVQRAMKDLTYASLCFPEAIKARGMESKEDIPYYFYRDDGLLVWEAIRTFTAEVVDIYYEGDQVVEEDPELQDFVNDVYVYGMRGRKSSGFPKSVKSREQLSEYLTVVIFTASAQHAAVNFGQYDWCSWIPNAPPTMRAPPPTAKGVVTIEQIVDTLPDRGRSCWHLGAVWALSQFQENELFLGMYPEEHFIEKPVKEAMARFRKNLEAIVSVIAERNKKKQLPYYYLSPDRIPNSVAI
The data set can be described thus: 5-LOX inhibition, Human Lipoxygenase Inhibitor Screening Assay (EIA) kit. It is filed as biochemical. As to the method: The ability of the test compounds to inhibit the 5-LOX enzyme (IC50 value, μM) was detected using the Cayman Human Lipoxygenase Inhibitor Screening Assay (EIA) kit (catalog no. K980-100, Cayman Chemical). The IC50 values of test compounds were measured in µM according to the manufacturer’s instructions and reported method.

Data set [1] has as its system Escherichia coli (E. coli) (ATCC 25922). The data set can be described thus: Disc diffusion antimicrobial screening, E. coli. To be noted: for antibacterial activity against E. coli: 100 µg/disc. It is filed as cell-based. As to the method: (§1) All compounds were screened for their antimicrobial activity at the Microbiology and Immunology Department, Faculty of Pharmacy, Beni-Suef University. The antimicrobial activity screening was carried out using the disc diffusion method, as described earlier, with some adjustments.
(§2) For each indicator microbe, a solution of half McFarland turbidity was prepared in sterile saline, followed by surface streaking of the strains on Mueller-Hinton agar with a sterile cotton swab. Then, sterile filter paper discs (5 mm diameter) preloaded with 100 µg of each compound were applied to the surface of the pre-inoculated plates. Then, the plates were chilled at 4 °C for 100 min before being incubated overnight at the proper temperature for microbial growth. Finally, the diameter of the inhibition zones around each disc was measured to evaluate the antimicrobial activity of the compounds. Ciprofloxacin was used as a standard antibacterial agent at a concentration of 20 µg/disc. Furthermore, DMSO-loaded discs were used as a negative control.
A general note: A growth-free zone around the sample is the usual read-out of agar diffusion tests.

Data set [2] deals with Salmonella enterica (ATCC 14028). The data set can be described thus: Disc diffusion antimicrobial screening, Salmonella enterica. Format: cell-based. To be noted: 100 µg/disc. As to the method:
as §1, §2

Another data set can be described thus: DPPH free radical assay. It is filed as biochemical. To be noted: 540 nm, 30 min, relative to Trolox. Background: Loss of DPPH colour is used to gauge radical scavenging.
A short description of data set [3]: Dissolution of DPPH samples in DMSO/methanol. It is filed as physicochemical. To be noted: DPPH sample preparation, methanol: DMSO 9:1 v/v. As to the method: Preparation of samples was occurred at the following concentrations: Samples 3a, 4a, 5b, 5d and 5e at final concentrations of 0.5 mg/ml in methanol: DMSO 9:1 v/v. Samples 4b and 4d at final concentrations 0.025 mg/ml in methanol: DMSO 9:1 v/v, sample 5a at final concentrations 0.25 mg/ml in methanol: DMSO 9:1 v/v, Sample 4c, 5c and 4e at final concentrations 0.05 mg/ml in methanol: DMSO 9:1 v/v, sample 3b at final concentration 0.75 mg/ml methanol: DMSO 9:1 v/v. A stock solution of 100 µM concentration of Trolox, a standard used in this experiment, was prepared in methanol from which seven concentrations were prepared, including 50, 40, 30, 20, 15, 10 and 5 µM.

The next data set has as its system heart. The data set can be described thus: Histopathological examination of the heart. Format: in vivo. To be noted: rats, two weeks administration, H&E stain. As to the method:
(§3) Eighteen rats were divided into three groups at random (6 animals in each group). The first group was given a vehicle and served as normal control. […] Ketamine (100 mg/kg) was used to anaesthetise the animals on the 15th day. Blood samples were obtained from the retro orbital, allowed to clot, centrifuged at 1000 g for 15 min, and utilised to examine heart function biomarkers (LDH, CK-MB, and troponin). The abdomen of each rat was opened, and the heart was extracted and washed in ice-cold physiological saline before being harnessed for histological investigation.

Data set [4] deals with heart function biomarkers (LDH, CK-MB, and troponin). The data set can be described thus: Cardiac function biomarkers in rat serum. Format: in vivo, rats. To be noted: 50 mg/kg/day p.o. for 2 weeks, mean ± SEM. On the procedure:
as §3

Each structure is given as a SMILES string. Where two headings read alike, the source gives them in different places. Marks after values point to notes of the source that are not given here.

The IC50 is the concentration needed to halve the response being measured. On to `COc1ccc(NC(=S)N/N=C/c2cn(S(C)(=O)=O)c3ccccc23)cc1` [Compound 4e, (E)-N-(4-Methoxyphenyl)-2{[1-(methylsulfonyl)-1H-indol 3yl]methylene}hydrazinecarbothioamide], for which the concentration for half-maximal inhibition (IC50) on 5-LOX enzyme and on 5-LOX enzyme (lab report) was 4080 ± 220 nM each time. Moreover, the 5-LOX %inh is recorded as 17.9% at 5-LOX enzyme (conc 0.1 (μM)), 30.9% on 5-LOX enzyme (conc 1 (μM)), 55.7% on 5-LOX enzyme (conc 10 (μM)) and 85% at 5-LOX enzyme (conc 100 (μM)). Besides, in data set [1], the “antibacterial activity against E. coli” value is reported as “selective antibacterial activity”. In addition, the “antibacterial activity against Salmonella enterica” value in data set [2] is “selective antibacterial activity”. In the data set “DPPH free radical assay”, the “DPPH test results (µM trolox equivalent/ 1mg sample ± SD)” value is 161.21 ± 7.98 µM trolox equivalent/ 1mg sample.

As to `Cc1ccc(N2C(=O)CSC2=NN=Cc2cn(S(C)(=O)=O)c3ccccc23)cc1` [Compound 5d], the “solubility of sample in DMSO and methanol” value in data set [3] is “didn’t dissolve in DMSO nor in methanol”. The heart histopathology finding result in the data set with heart was “little or no toxic effects on the heart”. Further, the IC50 at 5-LOX enzyme and at 5-LOX enzyme (lab report) was 1100 ± 60 nM each time. The 5-LOX %inh at 5-LOX enzyme (conc 0.1 (μM)) was determined as 30.3%; at 5-LOX enzyme (conc 1 (μM)), 47.6%; at 5-LOX enzyme (conc 10 (μM)), 70.6%; on 5-LOX enzyme (conc 100 (μM)), 86.9%. Moreover, in data set [4], the CK-MB is given as 0.315 ± 0.035^a,b ng/ml. Besides, in data set [4], the LDH is on record as 536 ± 28^a,b U/L. In addition, the “Troponin I” value in data set [4] is 0.0015 ± 0.0005^b ng/ml. Moreover, the “antibacterial activity against E. coli” value in data set [1] was “exclusively exhibited bioactivity against E. coli”. Besides, the zone of inhibition at 100 µg/disc in data set [1] (Escherichia coli, ATCC25922, read-out: diameters of inhibition zones) lay in the range of 8 to 15 mm.
